Test results as given in ChEMBL document CHEMBL3991601, “The target landscape of clinical kinase drugs” (Science, 2017).
Calls of active or inactive are those of the source.

Legend:
[1] = molecular target: Serine/threonine-protein kinase B-raf (Homo sapiens, UniProt P15056)
[2] = molecular target: Cyclin-dependent kinase 12 (Homo sapiens, UniProt Q9NYV4)
[3] = molecular target: T1, ATP-dependent RNA helicase DDX42 (Homo sapiens, UniProt Q86XP3)
T1 sequence (Q86XP3 whole entry): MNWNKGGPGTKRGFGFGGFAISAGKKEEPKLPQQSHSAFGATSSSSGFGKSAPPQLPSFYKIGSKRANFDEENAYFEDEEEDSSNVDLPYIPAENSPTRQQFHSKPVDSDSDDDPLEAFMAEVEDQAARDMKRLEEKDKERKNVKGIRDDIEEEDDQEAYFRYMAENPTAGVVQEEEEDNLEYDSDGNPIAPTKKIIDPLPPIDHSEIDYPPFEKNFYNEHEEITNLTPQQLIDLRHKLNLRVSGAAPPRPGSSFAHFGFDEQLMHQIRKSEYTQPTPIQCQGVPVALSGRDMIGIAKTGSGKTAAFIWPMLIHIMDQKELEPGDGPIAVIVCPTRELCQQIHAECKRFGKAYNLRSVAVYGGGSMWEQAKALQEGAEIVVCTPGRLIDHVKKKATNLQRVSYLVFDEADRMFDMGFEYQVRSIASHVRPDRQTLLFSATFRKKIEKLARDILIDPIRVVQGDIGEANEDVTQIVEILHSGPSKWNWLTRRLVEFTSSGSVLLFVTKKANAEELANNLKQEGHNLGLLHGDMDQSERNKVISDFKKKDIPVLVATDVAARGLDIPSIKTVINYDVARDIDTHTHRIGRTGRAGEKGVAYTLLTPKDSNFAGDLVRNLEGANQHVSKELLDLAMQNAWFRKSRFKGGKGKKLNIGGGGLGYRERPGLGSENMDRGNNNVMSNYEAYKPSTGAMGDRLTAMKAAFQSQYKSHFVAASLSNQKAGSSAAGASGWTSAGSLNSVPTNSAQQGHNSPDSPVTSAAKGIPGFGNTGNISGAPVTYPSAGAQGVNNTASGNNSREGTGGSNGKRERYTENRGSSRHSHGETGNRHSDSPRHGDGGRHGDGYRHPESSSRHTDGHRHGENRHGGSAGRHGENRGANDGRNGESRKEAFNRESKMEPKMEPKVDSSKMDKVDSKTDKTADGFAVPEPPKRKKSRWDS

[4] = molecular target: T2, Serine/threonine-protein kinase Nek3 (Homo sapiens, UniProt P51956)
T2 sequence (P51956 whole entry): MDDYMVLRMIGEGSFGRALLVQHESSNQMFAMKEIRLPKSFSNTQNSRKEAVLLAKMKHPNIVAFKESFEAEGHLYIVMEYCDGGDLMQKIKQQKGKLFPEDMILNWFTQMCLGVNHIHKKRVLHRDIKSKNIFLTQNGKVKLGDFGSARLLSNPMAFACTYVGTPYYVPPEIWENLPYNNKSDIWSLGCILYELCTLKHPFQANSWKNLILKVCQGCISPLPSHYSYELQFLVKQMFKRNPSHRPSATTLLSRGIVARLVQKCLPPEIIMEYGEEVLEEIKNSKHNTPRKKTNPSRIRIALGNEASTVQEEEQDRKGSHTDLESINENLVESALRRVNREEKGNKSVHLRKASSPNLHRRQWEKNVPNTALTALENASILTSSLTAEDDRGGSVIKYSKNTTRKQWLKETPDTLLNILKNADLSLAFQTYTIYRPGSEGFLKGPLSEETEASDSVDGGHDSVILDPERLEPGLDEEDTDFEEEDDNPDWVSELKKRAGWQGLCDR

[5] = molecular target: T3, cGMP-dependent protein kinase 1 (Homo sapiens, UniProt Q13976)
T3 sequence (Q13976 whole entry): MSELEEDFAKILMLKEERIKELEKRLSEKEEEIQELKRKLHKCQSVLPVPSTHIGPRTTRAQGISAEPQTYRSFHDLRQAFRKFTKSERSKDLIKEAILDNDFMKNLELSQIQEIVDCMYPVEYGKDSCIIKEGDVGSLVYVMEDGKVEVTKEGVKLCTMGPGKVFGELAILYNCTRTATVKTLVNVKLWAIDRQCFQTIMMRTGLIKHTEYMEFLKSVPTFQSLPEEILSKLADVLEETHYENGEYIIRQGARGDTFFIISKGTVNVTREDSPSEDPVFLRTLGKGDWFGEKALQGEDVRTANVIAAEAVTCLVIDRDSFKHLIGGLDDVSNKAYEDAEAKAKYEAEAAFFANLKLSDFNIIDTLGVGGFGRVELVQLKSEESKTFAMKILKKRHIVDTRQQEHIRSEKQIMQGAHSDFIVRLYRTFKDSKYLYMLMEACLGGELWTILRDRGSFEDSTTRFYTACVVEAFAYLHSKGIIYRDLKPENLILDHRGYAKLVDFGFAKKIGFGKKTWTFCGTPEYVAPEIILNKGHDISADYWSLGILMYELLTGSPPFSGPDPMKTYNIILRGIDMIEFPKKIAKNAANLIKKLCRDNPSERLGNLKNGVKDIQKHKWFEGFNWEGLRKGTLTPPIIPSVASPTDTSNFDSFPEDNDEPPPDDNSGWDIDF

[6] = molecular target: T4, Glycogen phosphorylase, brain form (Homo sapiens, UniProt P11216)
T4 sequence (P11216 whole entry): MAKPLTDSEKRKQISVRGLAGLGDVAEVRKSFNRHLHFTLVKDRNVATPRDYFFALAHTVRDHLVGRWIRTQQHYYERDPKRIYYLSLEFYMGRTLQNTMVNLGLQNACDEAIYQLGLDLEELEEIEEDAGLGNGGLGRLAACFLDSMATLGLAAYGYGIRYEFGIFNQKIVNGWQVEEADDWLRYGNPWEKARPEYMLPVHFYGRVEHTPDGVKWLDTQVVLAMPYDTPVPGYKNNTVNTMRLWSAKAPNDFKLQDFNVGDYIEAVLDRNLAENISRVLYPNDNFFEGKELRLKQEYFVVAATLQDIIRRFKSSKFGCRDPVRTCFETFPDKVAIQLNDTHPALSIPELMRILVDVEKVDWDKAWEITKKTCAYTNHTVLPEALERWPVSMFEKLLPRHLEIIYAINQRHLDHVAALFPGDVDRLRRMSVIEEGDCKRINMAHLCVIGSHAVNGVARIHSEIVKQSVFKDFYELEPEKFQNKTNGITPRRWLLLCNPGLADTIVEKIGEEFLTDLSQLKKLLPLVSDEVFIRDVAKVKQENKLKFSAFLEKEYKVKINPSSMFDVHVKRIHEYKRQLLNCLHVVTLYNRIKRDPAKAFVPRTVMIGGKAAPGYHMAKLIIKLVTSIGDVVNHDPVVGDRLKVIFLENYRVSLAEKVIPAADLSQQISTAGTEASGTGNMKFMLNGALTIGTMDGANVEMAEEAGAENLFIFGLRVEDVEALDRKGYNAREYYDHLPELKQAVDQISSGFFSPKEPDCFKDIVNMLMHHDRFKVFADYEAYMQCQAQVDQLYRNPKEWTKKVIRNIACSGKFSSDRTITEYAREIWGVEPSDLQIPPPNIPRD
Also: in the data inactive means no Kd found up to 30 µM.

Sequence of Cyclin-dependent kinase 12 (Q9NYV4 whole entry): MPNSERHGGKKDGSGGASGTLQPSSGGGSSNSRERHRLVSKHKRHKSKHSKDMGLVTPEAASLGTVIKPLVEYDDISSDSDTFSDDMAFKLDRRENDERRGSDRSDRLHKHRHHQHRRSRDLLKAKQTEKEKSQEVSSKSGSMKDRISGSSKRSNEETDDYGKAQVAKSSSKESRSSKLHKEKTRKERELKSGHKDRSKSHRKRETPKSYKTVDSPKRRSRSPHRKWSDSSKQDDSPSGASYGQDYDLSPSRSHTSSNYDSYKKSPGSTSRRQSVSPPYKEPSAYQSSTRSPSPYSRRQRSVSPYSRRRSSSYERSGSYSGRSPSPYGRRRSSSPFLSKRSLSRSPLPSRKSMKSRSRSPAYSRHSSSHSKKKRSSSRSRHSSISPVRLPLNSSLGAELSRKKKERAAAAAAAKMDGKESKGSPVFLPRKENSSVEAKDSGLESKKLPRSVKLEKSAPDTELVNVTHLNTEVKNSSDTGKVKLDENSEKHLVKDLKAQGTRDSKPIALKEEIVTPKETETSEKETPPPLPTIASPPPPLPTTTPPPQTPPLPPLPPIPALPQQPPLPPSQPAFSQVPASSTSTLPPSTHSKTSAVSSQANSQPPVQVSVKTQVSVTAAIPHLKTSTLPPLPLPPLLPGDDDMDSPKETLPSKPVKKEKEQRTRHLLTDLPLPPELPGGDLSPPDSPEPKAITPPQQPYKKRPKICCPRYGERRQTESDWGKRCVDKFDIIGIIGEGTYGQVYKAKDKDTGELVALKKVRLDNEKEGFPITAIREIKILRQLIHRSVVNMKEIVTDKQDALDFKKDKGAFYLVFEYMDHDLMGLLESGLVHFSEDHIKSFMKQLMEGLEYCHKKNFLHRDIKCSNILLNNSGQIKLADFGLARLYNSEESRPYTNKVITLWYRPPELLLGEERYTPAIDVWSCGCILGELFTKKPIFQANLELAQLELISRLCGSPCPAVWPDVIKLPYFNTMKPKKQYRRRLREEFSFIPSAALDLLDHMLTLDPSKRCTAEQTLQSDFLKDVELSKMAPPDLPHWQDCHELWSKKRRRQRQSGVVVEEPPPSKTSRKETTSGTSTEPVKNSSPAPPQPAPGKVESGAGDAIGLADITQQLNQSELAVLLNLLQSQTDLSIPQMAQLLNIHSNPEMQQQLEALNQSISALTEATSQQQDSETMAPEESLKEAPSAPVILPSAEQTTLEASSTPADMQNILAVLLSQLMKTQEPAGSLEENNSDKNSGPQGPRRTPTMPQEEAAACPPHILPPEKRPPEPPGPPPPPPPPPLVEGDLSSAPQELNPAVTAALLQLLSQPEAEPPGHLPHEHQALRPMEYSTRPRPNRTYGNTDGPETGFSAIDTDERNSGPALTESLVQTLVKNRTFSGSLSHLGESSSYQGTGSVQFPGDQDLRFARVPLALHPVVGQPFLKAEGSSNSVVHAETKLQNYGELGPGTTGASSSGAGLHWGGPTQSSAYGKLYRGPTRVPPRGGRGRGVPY
Sequence of Serine/threonine-protein kinase B-raf (P15056 whole entry): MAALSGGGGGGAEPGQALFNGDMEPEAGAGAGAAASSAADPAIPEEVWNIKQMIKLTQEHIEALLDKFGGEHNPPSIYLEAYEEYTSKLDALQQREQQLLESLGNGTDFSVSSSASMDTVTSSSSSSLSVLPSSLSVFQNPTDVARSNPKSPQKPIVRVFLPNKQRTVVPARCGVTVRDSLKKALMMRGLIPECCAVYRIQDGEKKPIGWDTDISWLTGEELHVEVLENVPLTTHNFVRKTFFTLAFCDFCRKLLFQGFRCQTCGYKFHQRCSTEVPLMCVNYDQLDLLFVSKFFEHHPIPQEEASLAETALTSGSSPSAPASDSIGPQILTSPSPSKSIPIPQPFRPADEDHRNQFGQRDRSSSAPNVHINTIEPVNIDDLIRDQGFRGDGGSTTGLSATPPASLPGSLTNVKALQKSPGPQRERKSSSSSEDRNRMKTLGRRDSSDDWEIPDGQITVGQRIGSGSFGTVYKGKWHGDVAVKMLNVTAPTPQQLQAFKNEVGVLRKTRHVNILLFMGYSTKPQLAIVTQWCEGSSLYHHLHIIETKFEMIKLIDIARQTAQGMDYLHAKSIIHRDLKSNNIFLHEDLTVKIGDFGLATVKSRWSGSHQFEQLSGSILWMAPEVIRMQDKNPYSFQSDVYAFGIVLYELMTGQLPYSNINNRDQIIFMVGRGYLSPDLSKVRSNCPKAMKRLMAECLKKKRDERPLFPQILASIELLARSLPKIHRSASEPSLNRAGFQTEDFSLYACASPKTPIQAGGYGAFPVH

Row | Kd [5] | SMILES | Kd [1] | Kd [2] | Kd [3] | Kd [4] | Kd [6]
1 | > 30 µM (inactive) | NC(=O)c1ccc(N(C(N)=O)c2c(F)cccc2F)nc1-c1ccc(F)cc1F [VX-702] | > 30 µM (inactive) | > 30 µM (inactive) | > 30 µM (inactive) | > 30 µM (inactive) | > 30 µM (inactive)
2 | – | CN(c1ncccc1CNc1nc(Nc2ccc3c(c2)CC(=O)N3)ncc1C(F)(F)F)S(C)(=O)=O [PF-00562271] | > 30 µM (inactive) | > 30 µM (inactive) | > 30 µM (inactive) | > 30 µM (inactive) | > 30 µM (inactive)
3 | > 30 µM (inactive) | Cc1cc(Nc2nc(N[C@@H](C)c3ncc(F)cn3)ncc2Cl)n[nH]1 [AZD-1480] | > 30 µM (inactive) | > 30 µM (inactive) | > 30 µM (inactive) | > 30 µM (inactive) | > 30 µM (inactive)
4 | – | C[C@]1(O)C[C@@H](c2nc(-c3ccc4ccc(-c5ccccc5)nc4c3)c3c(N)nccn32)C1 [LINSITINIB] | > 30 µM (inactive) | > 30 µM (inactive) | > 30 µM (inactive) | > 30 µM (inactive) | > 30 µM (inactive)
5 | > 30 µM (inactive) | CNC(=O)c1cc(COc2nnc(Nc3ccc(Cl)cc3)c3ccoc23)ccn1 [TELATINIB] | > 30 µM (inactive) | > 30 µM (inactive) | > 30 µM (inactive) | > 30 µM (inactive) | > 30 µM (inactive)
6 | – | CC(C)CC(=O)Nc1[nH]nc2c1CN(C(=O)C1CCN(C)CC1)C2(C)C [PHA-793887] | > 30 µM (inactive) | 3.66 µM (active) | > 30 µM (inactive) | > 30 µM (inactive) | > 30 µM (inactive)
7 | > 30 µM (inactive) | Cc1cc(-c2cc(OC(=O)c3ccccc3)ccc2Cl)cc2nnc(Nc3ccc(OCCN4CCCC4)cc3)nc12 [TG100-801] | > 30 µM (inactive) | > 30 µM (inactive) | – | > 30 µM (inactive) | > 30 µM (inactive)
8 | > 30 µM (inactive) | Cc1cc(C(=O)Nc2cc(Oc3ccc4nc(NC(=O)C5CC5)cn4n3)ccc2C)n(C)n1 [TAK-593] | > 30 µM (inactive) | > 30 µM (inactive) | – | > 30 µM (inactive) | > 30 µM (inactive)
9 | > 30 µM (inactive) | CC[C@@](C)(Nc1ccnc(-c2c[nH]c3ncccc23)n1)C(=O)NCC(F)(F)F [DECERNOTINIB] | > 30 µM (inactive) | > 30 µM (inactive) | – | > 30 µM (inactive) | > 30 µM (inactive)
10 | > 30 µM (inactive) | COc1cc(Nc2ncc(F)c(Nc3ccc4c(n3)N(COP(=O)(O)O)C(=O)C(C)(C)O4)n2)cc(OC)c1OC [FOSTAMATINIB] | > 30 µM (inactive) | > 30 µM (inactive) | – | > 30 µM (inactive) | > 30 µM (inactive)
11 | > 30 µM (inactive) | c1cc(OCCN2CCCCC2)cc(-c2n[nH]c3ccc(-c4nc[nH]n4)cc23)c1 [CC-401] | > 30 µM (inactive) | > 30 µM (inactive) | – | > 30 µM (inactive) | > 30 µM (inactive)
12 | – | O=S(=O)(c1cccc2cnccc12)N1CCCNCC1 [FASUDIL] | > 30 µM (inactive) | 3.48 µM (active) | > 30 µM (inactive) | > 30 µM (inactive) | > 30 µM (inactive)
13 | > 30 µM (inactive) | O=C(Nc1ccc(OC(F)(F)F)cc1)c1sccc1NCc1ccnc2ccccc12 [OSI-930] | > 30 µM (inactive) | > 30 µM (inactive) | – | > 30 µM (inactive) | > 30 µM (inactive)
14 | > 30 µM (inactive) | O=C(O)c1ccc2c(c1)nc(Nc1cccc(Cl)c1)c1ccncc12 [SILMITASERTIB] | > 30 µM (inactive) | > 30 µM (inactive) | – | > 30 µM (inactive) | > 30 µM (inactive)

Row | SMILES | Kd [5] | Kd [1] | Kd [2] | Kd [3] | Kd [4] | Kd [6]
15 | Cc1c(NC(=O)OC[C@@H]2COCCN2)cn2ncnc(Nc3ccc4c(cnn4Cc4cccc(F)c4)c3)c12 [AC-480] | > 30 µM (inactive) | > 30 µM (inactive) | > 30 µM (inactive) | > 30 µM (inactive) | > 30 µM (inactive) | > 30 µM (inactive)
16 | Cn1cc(-c2[nH]c3cc(NC(=O)[C@H](N)C4CCCCC4)cc4c3c2C=NNC4=O)cn1 | > 30 µM (inactive) | > 30 µM (inactive) | > 30 µM (inactive) | > 30 µM (inactive) | > 30 µM (inactive) | > 30 µM (inactive)
17 | NC[C@@](O)(c1ccc(Cl)cc1)c1ccc(-c2cn[nH]c2)cc1 [AT-13148] | > 30 µM (inactive) | > 30 µM (inactive) | > 30 µM (inactive) | > 30 µM (inactive) | > 30 µM (inactive) | > 30 µM (inactive)
18 | CCc1nc(C(N)=O)c(Nc2ccc(N3CCC(N4CCN(C)CC4)CC3)c(OC)c2)nc1NC1CCOCC1 [GILTERITINIB] | > 30 µM (inactive) | > 30 µM (inactive) | > 30 µM (inactive) | – | 2.84 µM (active) | > 30 µM (inactive)
19 | C=CCN(/C=C1/C(=O)O[C@H](COC)[C@@]2(C)C1=C(O)C(=O)C1=C2[C@H](OC(C)=O)C[C@]2(C)C(=O)CC[C@@H]12)CC=C [SONOLISIB] | > 30 µM (inactive) | > 30 µM (inactive) | > 30 µM (inactive) | – | > 30 µM (inactive) | > 30 µM (inactive)
20 | Cc1c(Cn2c(C)nc3c(C(=O)O)cc(N4CCOCC4)cc32)cccc1C(F)(F)F [GSK-2636771] | > 30 µM (inactive) | > 30 µM (inactive) | > 30 µM (inactive) | – | > 30 µM (inactive) | > 30 µM (inactive)
